This test has as its target CB1 (mutant) (Homo sapiens, UniProt P21554). The test can be described thus: R-SAT functional receptor assay, CB1 (mutant, truncated after amino acid 417). The test is classed as cell-based. The settings on record: R-SAT CB1; for IC50 / pIC50: receptor form (mutant or wild-type) not stated; for Emax: read-out: % Inhibition.
The mark [1] stands for this setting: Appendix A, read-out: pIC50 (converted).
Where [2] appears, read: Appendix A, receptor form not stated, relative to SR141716 (100%).

Each structure is given as a SMILES string. Read-outs that look alike come from different tables or passages of the source.

Chain of CB1 (mutant) (P21554 1-417, change not shown): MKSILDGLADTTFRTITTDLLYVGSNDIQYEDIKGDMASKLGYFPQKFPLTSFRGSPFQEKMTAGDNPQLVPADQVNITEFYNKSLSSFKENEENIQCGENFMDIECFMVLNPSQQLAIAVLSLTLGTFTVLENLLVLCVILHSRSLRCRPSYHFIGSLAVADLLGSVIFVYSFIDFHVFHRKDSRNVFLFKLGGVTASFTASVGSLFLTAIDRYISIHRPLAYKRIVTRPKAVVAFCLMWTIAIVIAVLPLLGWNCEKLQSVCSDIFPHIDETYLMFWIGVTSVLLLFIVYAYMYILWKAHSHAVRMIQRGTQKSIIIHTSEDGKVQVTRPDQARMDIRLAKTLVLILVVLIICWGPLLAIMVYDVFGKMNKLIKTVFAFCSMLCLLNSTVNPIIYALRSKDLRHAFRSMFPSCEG

For the compound `O=C(NCCCC(F)(F)F)c1ccc2c(c1)N=C(c1ccc(Cl)s1)c1ccccc1S2` [drawing 559], the IC50 under setting [1] was 2.51 nM. The Emax under setting [2] was 103%.

For `O=C(NCCc1ccncc1)c1ccc2c(c1)N=C(c1ccccn1)c1ccccc1S2`, the IC50 under setting [1] is 251 nM. Also, under setting [2], the Emax is 51%.

Consider `CCCC1=Nc2cc(C(=O)NC(C)CCN(C)C(=O)OCC)ccc2Sc2ccc(C)cc21` (stereo not drawn), for which, under setting [1], the IC50 was 1000 nM. Also, the Emax under setting [2] came out at 79%.

`CCCC1=Nc2cc(C(=O)NCCc3cc(OC)ccc3OC)ccc2Sc2ccccc21` [drawing 1051]: the IC50 under setting [1] was 31.6 nM. The Emax under setting [2] amounted to 98%.

On to `O=C(NC1CCCC1)c1ccc2c(c1)N=C(c1ccc(Cl)s1)c1ccccc1S2` [drawing 1139], for which, under setting [1], the IC50 was 39.8 nM. For the same compound, the Emax under setting [2] came out at 86%.

In the case of `Cc1csc(CNC(=O)c2ccc3c(c2)N=C(c2cccc(F)c2)c2ccccc2S3)c1` [drawing 557], the IC50 under setting [1] is 2.51 nM. The Emax under setting [2] came to 96%.

With `CCCCNC(=O)c1ccc2c(c1)N=C(c1ccc(Cl)cc1Cl)c1ccccc1S2` [drawing 1165], under setting [1], the IC50 was 39.8 nM. Moreover, the Emax under setting [2] is 98%.

As to `CCOC(=O)c1ccc(C2=Nc3cc(C(=O)NCc4cccnc4)ccc3Sc3ccccc32)cc1` [drawing 850], the IC50 under setting [1] was 158 nM. Under setting [2], the Emax is 73%.

In the case of `O=C(NN1CCCCC1)c1ccc2c(c1)N=C(c1ccccc1Cl)c1ccccc1S2`, the IC50 under setting [1] is 501 nM. Further, the Emax under setting [2] amounted to 45%.

Turning to `CCCCN(C)CCCNC(=O)c1ccc2c(c1)N=C(CCC)c1ccccc1S2`, the IC50 under setting [1] is 794 nM. Also, the Emax under setting [2] is 124%.

With `O=C(NC1CCCC1)c1ccc2c(c1)N=C(c1ccc(Cl)c(Cl)c1)c1ccccc1S2` [drawing 672], the IC50 under setting [1] is 63.1 nM. The Emax under setting [2] came to 95%.

As for `CCCNC(=O)c1ccc2c(c1)N=C(c1cccc(Cl)c1)c1ccccc1S2` [drawing 641], under setting [1], the IC50 is 5.01 nM. In addition, under setting [2], the Emax worked out at 107%.

Consider `COc1ccc(C2=Nc3cc(C(=O)NNC(=O)Cc4ccccc4)ccc3Sc3ccccc32)cc1`, for which the IC50 under setting [1] was 50.1 nM. For the same compound, the Emax under setting [2] came out at 77%.

As to `O=C(NC1CCCC1)c1ccc2c(c1)N=C(c1cccc(Cl)c1)c1ccccc1S2` [drawing 702], under setting [1], the IC50 was 79.4 nM. For the same compound, the Emax under setting [2] was 96%.

For `CC(C)CNC(=O)c1ccc2c(c1)N=C(c1ccccn1)c1ccccc1S2` [drawing 1021], the IC50 under setting [1] was 25.1 nM. For the same compound, under setting [2], the Emax is 96%.

As for `O=C(NC1CCCC1)c1ccc2c(c1)N=C(c1cccc(F)c1)c1ccccc1S2` [drawing 742], under setting [1], the IC50 is 79.4 nM. The Emax under setting [2] worked out at 100%.

Regarding `CCCCC1=Nc2cc(C(=O)NN3CCCCC3)ccc2Sc2ccccc21`, the IC50 under setting [1] is 316 nM. The Emax under setting [2] is 82%.

Turning to `CCONC(=O)c1ccc2c(c1)N=C(c1ccc(Cl)s1)c1ccccc1S2`, under setting [1], the IC50 is 50.1 nM. The Emax under setting [2] was determined as 97%.

Regarding `CC(NC(=O)c1ccc2c(c1)N=C(c1ccccc1)c1ccccc1S2)c1ccccc1` (stereo not drawn) [drawing 1147], the IC50 under setting [1] is 39.8 nM. Further, the Emax under setting [2] was determined as 85%.

`CCCCN(C)C(=O)c1ccc2c(c1)N=C(c1ncccc1C)c1ccccc1S2` displayed a pIC50 (Appendix A) of 1.0. Under setting [2], the Emax is 14%.

Turning to `O=C(NCCc1cccc(Cl)c1)c1ccc2c(c1)N=C(c1ccc(Cl)cc1)c1ccccc1S2` [drawing 911], the IC50 under setting [1] is 15.8 nM. Further, the Emax under setting [2] was 99%.

Regarding `O=C(NNCc1ccccc1)c1ccc2c(c1)N=C(c1ccc(Cl)cc1)c1ccccc1S2`, the IC50 under setting [1] was 200 nM. For the same compound, the Emax under setting [2] came out at 66%.

For `O=C(NCCc1ccncc1)c1ccc2c(c1)N=C(c1ccc(Cl)cc1)c1ccccc1S2` [drawing 1135], the IC50 under setting [1] is 39.8 nM. The Emax under setting [2] was 116%.

Regarding `CC(C)CNC(=O)c1ccc2c(c1)N=C(c1ccsc1)c1ccccc1S2` [drawing 581], the IC50 under setting [1] was 3.16 nM. The Emax under setting [2] turned out to be 90%.

For `O=C(NCCc1ccccc1)c1ccc2c(c1)N=C(c1ccccc1F)c1ccccc1S2` [drawing 600], the IC50 under setting [1] was 50.1 nM. Moreover, the Emax under setting [2] is 98%.

Take `CONC(=O)c1ccc2c(c1)N=C(c1ccc(F)cc1)c1ccccc1S2`: the IC50 under setting [1] is 501 nM. The Emax under setting [2] turned out to be 65%.

Regarding `COc1ccc(C2=Nc3cc(C(=O)NCC(C)C)ccc3Sc3ccccc32)cc1` [drawing 835], the IC50 under setting [1] was 12.6 nM. Besides, the Emax under setting [2] was 118%.

In the case of `CONC(=O)c1ccc2c(c1)N=C(c1cccc(Br)c1)c1ccccc1S2`, under setting [1], the IC50 was 501 nM. Further, under setting [2], the Emax came to 73%.

As to `Cc1cccnc1C1=Nc2cc(C(=O)NCc3cccnc3)ccc2Sc2ccccc21`, under setting [1], the IC50 was > 126 nM. Further, the Emax under setting [2] stood at 39%.

Consider `O=C(NCc1ccc(Cl)cc1Cl)c1ccc2c(c1)N=C(c1ccccc1F)c1ccccc1S2` [drawing 568], for which the IC50 under setting [1] is 50.1 nM. Under setting [2], the Emax stood at 85%.

As for `O=C(NCc1ccccn1)c1ccc2c(c1)N=C(c1cccc(Br)c1)c1ccccc1S2` [drawing 891], the IC50 under setting [1] is 15.8 nM. The Emax under setting [2] turned out to be 85%.

Compound `CC(NC(=O)c1ccc2c(c1)N=C(C1CCCCC1)c1ccccc1S2)c1ccccc1` (stereo not drawn) [drawing 674] displayed a pIC50 (Appendix A) of 7.2. Under setting [2], the “% Inhibition” value is recorded as 113%.

Turning to `CCCC1=Nc2cc(C(=O)NCCCc3ccccc3)ccc2Sc2ccccc21` [drawing 763], under setting [1], the IC50 is 10 nM. The Emax under setting [2] is 104%.

Turning to `CCCC1=Nc2cc(C(=O)NCCc3ccc(OC)c(OC)c3)ccc2Sc2ccccc21`, the IC50 under setting [1] was 31.6 nM. The Emax under setting [2] is 105%.

On to `O=C(NN1CCOCC1)c1ccc2c(c1)N=C(c1ccc(Cl)cc1)c1ccccc1S2`, for which, under setting [1], the IC50 is 251 nM. For the same compound, the Emax under setting [2] worked out at 75%.

Consider `CCCC1=Nc2cc(C(=O)NCCCN3CCN(c4ccc(OC)cc4)CC3)ccc2Sc2ccccc21`, for which, under setting [1], the IC50 was 2510 nM. The Emax under setting [2] turned out to be 79%.

`CC(C)NC(=O)c1ccc2c(c1)N=C(c1ccc(Cl)cc1Cl)c1ccccc1S2`: the Emax under setting [2] amounted to 45%.

Take `CCOCCNC(=O)c1ccc2c(c1)N=C(N1CCCCC1)c1ccccc1S2`: the IC50 under setting [1] was 794 nM. Moreover, the Emax under setting [2] stood at 103%.

Turning to `Cc1cccnc1C1=Nc2cc(C(=O)NC3CCCCC3)ccc2Sc2ccccc21`, the IC50 under setting [1] was 501 nM. For the same compound, the Emax under setting [2] was determined as 61%.

`Cc1ccc(CNC(=O)c2ccc3c(c2)N=C(c2ccc(Cl)c(Cl)c2)c2ccccc2S3)o1` [drawing 801]: the IC50 under setting [1] is 10 nM. Also, the Emax under setting [2] was determined as 100%.

As for `COc1ccc(C2=Nc3cc(C(=O)NC4CCCCC4)ccc3Sc3ccccc32)cc1` [drawing 1153], the IC50 under setting [1] is 39.8 nM. Also, under setting [2], the Emax turned out to be 115%.

For the compound `O=C(NCc1ccccn1)c1ccc2c(c1)N=C(c1ccccn1)c1ccccc1S2`, the IC50 under setting [1] was 316 nM. The Emax under setting [2] was determined as 81%.

Compound `CCONC(=O)c1ccc2c(c1)N=C(c1ccccn1)c1ccccc1S2` displayed a pIC50 (Appendix A) of 1.0. Also, the Emax under setting [2] was determined as 3%.

Consider `O=C(NN1CCCCCC1)c1ccc2c(c1)N=C(c1ccc(Cl)cc1)c1ccccc1S2` [drawing 624], for which, under setting [1], the IC50 was 63.1 nM. Also, under setting [2], the Emax came to 103%.

On to `O=C(NCCCc1ccccc1)c1ccc2c(c1)N=C(c1ccccc1F)c1ccccc1S2` [drawing 935], for which the IC50 under setting [1] was 20 nM. Also, the Emax under setting [2] was 106%.

Take `CCCCNC(=O)c1ccc2c(c1)N=C(c1ccc(Cl)cc1)c1sccc1S2` [drawing 657]: the IC50 under setting [1] is 6.31 nM. The Emax under setting [2] stood at 122%.

Take `CC(C)CCNC(=O)c1ccc2c(c1)N=C(c1ccccc1Cl)c1ccccc1S2` [drawing 1053]: the IC50 under setting [1] was 31.6 nM. Under setting [2], the Emax was found to be 105%.

Take `CCCC1=Nc2cc(C(=O)NCCc3ccc(OC)cc3OC)ccc2Sc2ccccc21` [drawing 570]: under setting [1], the IC50 was 50.1 nM. Also, the Emax under setting [2] stood at 101%.

Regarding `CCCCNC(=O)c1ccc2c(c1)N=C(c1ccc(Cl)cc1)c1ccccc1[S+]2[O-]` (stereo not drawn) [drawing 666], the IC50 under setting [1] was 63.1 nM. Further, the Emax under setting [2] amounted to 97%.

Turning to `CCCCNC(=O)c1ccc2c(c1)N=C(c1ccc(Cl)s1)c1ccc(F)cc1S2` [drawing 1010], the IC50 under setting [1] was 501 nM. The Emax under setting [2] is 101%.

`CC(C)CNC(=O)c1ccc2c(c1)N=C(c1ccc(Cl)s1)c1ccccc1S2` [drawing 551] gave a pIC50 (Appendix A) of 8.7.

`CCCCCC1=Nc2cc(C(=O)NN3CCCCC3)ccc2Sc2ccccc21`: the IC50 under setting [1] was 251 nM. Moreover, the Emax under setting [2] is 100%.

`COc1ccc(C2=Nc3cc(C(=O)NCc4ccncc4)ccc3Sc3ccccc32)cc1` [drawing 728]: under setting [1], the IC50 was 79.4 nM. In addition, under setting [2], the Emax amounted to 105%.

Regarding `O=C(NCc1ccco1)c1ccc2c(c1)N=C(c1ccc(F)cc1)c1ccccc1S2` [drawing 689], the IC50 under setting [1] is 6.31 nM. The Emax under setting [2] is 104%.

Consider `O=C(NCc1ccccc1Cl)c1ccc2c(c1)N=C(c1ccccc1)c1ccccc1S2` [drawing 594], for which, under setting [1], the IC50 was 50.1 nM. Also, under setting [2], the Emax stood at 86%.

In the case of `CCCCNC(=O)c1ccc2c(c1)N=C(c1ccccc1Cl)c1ccccc1S2`, the Emax under setting [2] turned out to be 89%.

On to `CC(CNC(=O)c1ccc2c(c1)N=C(N1CCCCC1)c1cc(F)ccc1S2)c1ccccc1` (stereo not drawn) [drawing 1171], for which, under setting [1], the IC50 was 39.8 nM. The Emax under setting [2] is 102%.

Consider `O=C(NN1CCCCC1)c1ccc2c(c1)N=C(c1ccccc1)c1ccccc1S2` [drawing 897], for which the IC50 under setting [1] was 15.8 nM. The Emax under setting [2] came to 115%.

`C[C@@H]1CCC[C@H](C)N1NC(=O)c1ccc2c(c1)N=C(c1ccc(F)cc1)c1ccccc1S2` [drawing 943]: the IC50 under setting [1] was 20 nM. Under setting [2], the Emax is 115%.

Consider `O=C(NCCc1ccncc1)c1ccc2c(c1)N=C(c1cccc(F)c1)c1ccccc1S2` [drawing 1097], for which the Emax under setting [2] turned out to be 106%. For the same compound, for the setting “pIC50, Appendix A”, the IC50 is 31.6 nM.

These data come from patent publication US20080090805A1, “CB-1 MODULATING COMPOUNDS AND THEIR USE” (ACADIA PHARMACEUTICALS INC., priority 2005, published 2008).
